Reference: patent US20180360721A1, “PEPTIDE FOR STIMULATING MELANOGENESIS” (priority 2017, published 2018)
Where a SMILES comes first, the peptide text is derived from it.

Tested on: B16F10 cells
Assay: MTT assay of cell viability
Type: cell-based, mouse
Conditions: different concentrations, 24, 48 or 72 hours
Experimental: B16F10 is a melanoma cell line isolated from mouse skin (American Type Culture Collection, USA) and was cultured in phenol red-free Dulbecco's Modified Eagle Medium (DMEM) containing 10% (v/v) FBS and penicillin/streptomycin (100 IU/[…]) in 5% CO2 at 37° C.
The cells (2×10^3) in 100 μl complete DMEM were seeded in 96-well plates and treated with the peptide of SEQ ID NO: 1 at different concentrations. The cells treated with ddH2O was used as controls. Ten microliters of 5 mg/ml 3-(4,5-dimethyl-2-thiazolyl)-2,5-diphenyl-2H-tetrazolium bromide solution (MTT; Sigma) was added to each well and incubated at 37° C. for 3 hours. After that, 100 μl 10% SDS in 0.01N HCl was added to dissolve the MTT formazan crystals. The resultant optical density was measured by spectrophotometry at dual wavelengths, 550 and 630 nm.

C[C@H](NC(=O)[C@H](CO)NC(=O)[C@@H](N)CC(N)=O)C(=O)N[C@H](C(=O)N[C@@H](CCC(=O)O)C(=O)N[C@@H](CCCNC(=N)N)C(=O)N[C@@H](CCC(=O)O)C(=O)O)[C@@H](C)O [peptide of SEQ ID NO: 1, AsnSerAlaThrGluArgGlu] (H-NSATERE-OH)
cell viability (MTT): did not significantly affect the viability | cell viability (MTT) (listed as peptide having the amino acid sequence of SEQ ID NO: 1): did not significantly affect viability
